ChEMBL document CHEMBL4261532, “Theoretical models of inhibitory activity for inhibitors of protein-protein interactions: targeting menin-mixed lineage leukemia with small molecules” (Medchemcomm, 2017)

These compounds were tested against T1, Menin/Histone-lysine N-methyltransferase MLL (Homo sapiens, UniProt O00255) (assay: Inhibition of menin (unknown origin)-fluorescein-labeled MLL1 (unknown origin) after 1 hr by fluorescence polarization assay).
Format: protein assay

T1 sequence (O00255 whole entry): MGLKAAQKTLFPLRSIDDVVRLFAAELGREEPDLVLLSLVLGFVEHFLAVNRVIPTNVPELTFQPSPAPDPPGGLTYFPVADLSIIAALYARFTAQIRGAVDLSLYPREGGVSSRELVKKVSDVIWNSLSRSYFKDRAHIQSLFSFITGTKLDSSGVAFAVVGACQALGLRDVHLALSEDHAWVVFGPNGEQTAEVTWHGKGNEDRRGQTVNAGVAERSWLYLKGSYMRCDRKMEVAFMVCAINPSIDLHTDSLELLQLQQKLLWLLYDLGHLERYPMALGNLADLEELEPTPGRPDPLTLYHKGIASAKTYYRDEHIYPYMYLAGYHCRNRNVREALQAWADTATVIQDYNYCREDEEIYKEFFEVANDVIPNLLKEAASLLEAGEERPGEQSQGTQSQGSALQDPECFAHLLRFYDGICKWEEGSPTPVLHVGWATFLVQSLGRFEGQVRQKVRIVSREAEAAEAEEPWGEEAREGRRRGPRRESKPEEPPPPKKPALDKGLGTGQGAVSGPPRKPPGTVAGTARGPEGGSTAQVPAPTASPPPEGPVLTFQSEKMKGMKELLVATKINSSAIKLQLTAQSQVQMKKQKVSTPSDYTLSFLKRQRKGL
T1 sequence (Q03164 1-2718 partner limits assumed): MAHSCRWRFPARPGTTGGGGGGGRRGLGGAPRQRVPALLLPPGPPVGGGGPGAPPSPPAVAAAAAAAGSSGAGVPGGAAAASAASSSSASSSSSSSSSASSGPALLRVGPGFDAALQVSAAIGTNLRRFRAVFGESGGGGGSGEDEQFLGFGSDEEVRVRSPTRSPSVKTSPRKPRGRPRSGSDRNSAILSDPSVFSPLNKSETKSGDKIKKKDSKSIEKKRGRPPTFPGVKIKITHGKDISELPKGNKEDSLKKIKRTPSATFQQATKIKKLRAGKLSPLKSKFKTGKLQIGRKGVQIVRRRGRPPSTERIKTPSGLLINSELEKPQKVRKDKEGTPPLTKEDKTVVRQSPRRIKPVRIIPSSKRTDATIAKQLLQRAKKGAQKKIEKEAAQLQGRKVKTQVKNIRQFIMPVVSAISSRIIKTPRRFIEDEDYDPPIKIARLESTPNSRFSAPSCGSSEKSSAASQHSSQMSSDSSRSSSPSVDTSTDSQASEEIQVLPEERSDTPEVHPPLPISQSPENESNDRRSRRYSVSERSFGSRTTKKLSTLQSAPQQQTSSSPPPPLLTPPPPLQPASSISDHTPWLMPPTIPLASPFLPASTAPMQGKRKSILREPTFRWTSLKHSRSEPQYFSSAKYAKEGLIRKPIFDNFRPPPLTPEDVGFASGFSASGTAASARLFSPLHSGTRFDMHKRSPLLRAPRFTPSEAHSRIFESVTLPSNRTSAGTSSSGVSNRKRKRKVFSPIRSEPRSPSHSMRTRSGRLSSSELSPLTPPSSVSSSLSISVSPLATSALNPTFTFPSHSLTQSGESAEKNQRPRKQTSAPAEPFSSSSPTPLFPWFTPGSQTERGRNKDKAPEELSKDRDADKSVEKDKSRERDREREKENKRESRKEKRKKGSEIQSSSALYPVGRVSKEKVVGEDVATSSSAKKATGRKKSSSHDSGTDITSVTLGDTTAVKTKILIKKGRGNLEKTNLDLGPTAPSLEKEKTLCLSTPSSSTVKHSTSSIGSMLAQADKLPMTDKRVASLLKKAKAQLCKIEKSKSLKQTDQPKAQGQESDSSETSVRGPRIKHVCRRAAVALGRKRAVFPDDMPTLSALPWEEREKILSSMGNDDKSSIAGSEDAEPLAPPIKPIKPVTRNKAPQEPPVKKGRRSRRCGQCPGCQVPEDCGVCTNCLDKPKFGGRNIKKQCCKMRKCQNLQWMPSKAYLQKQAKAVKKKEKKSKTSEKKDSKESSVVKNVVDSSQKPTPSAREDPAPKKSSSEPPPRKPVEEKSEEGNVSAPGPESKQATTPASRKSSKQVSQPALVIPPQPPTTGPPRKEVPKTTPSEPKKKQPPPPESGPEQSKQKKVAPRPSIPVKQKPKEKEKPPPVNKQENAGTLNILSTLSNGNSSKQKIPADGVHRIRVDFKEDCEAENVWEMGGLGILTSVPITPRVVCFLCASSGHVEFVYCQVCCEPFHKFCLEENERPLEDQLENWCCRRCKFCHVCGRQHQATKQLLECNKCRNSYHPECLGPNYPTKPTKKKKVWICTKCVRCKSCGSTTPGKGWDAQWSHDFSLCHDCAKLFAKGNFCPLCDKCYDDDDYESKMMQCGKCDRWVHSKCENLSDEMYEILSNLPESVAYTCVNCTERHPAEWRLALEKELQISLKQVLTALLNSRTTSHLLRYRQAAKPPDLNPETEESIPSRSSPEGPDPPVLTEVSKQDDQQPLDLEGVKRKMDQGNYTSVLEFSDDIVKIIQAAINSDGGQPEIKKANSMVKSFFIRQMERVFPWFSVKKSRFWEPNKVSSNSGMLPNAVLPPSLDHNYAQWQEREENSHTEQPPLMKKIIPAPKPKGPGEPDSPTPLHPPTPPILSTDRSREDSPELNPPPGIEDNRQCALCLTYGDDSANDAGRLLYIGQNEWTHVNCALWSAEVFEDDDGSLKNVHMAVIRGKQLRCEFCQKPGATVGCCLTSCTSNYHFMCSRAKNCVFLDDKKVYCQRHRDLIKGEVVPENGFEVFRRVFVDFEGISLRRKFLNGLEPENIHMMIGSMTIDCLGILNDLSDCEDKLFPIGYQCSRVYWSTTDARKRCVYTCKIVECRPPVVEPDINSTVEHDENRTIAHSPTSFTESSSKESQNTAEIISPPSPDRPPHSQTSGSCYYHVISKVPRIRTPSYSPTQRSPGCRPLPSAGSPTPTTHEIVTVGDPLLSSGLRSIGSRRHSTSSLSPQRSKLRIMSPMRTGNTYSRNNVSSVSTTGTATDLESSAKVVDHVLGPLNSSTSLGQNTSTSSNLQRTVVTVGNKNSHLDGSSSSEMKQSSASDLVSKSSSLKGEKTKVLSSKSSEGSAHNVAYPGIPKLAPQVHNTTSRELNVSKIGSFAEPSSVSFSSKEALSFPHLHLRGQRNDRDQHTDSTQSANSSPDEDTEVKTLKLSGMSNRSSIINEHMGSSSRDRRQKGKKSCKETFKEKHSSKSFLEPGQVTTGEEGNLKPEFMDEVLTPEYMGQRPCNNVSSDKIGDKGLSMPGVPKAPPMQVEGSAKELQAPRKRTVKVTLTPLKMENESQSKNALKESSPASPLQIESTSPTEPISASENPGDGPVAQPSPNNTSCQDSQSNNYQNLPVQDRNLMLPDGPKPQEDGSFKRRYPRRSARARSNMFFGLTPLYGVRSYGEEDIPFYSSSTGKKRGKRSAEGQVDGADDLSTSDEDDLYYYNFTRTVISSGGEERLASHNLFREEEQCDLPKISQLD
T1 sequence (Q03164 2719-3969 partner limits assumed): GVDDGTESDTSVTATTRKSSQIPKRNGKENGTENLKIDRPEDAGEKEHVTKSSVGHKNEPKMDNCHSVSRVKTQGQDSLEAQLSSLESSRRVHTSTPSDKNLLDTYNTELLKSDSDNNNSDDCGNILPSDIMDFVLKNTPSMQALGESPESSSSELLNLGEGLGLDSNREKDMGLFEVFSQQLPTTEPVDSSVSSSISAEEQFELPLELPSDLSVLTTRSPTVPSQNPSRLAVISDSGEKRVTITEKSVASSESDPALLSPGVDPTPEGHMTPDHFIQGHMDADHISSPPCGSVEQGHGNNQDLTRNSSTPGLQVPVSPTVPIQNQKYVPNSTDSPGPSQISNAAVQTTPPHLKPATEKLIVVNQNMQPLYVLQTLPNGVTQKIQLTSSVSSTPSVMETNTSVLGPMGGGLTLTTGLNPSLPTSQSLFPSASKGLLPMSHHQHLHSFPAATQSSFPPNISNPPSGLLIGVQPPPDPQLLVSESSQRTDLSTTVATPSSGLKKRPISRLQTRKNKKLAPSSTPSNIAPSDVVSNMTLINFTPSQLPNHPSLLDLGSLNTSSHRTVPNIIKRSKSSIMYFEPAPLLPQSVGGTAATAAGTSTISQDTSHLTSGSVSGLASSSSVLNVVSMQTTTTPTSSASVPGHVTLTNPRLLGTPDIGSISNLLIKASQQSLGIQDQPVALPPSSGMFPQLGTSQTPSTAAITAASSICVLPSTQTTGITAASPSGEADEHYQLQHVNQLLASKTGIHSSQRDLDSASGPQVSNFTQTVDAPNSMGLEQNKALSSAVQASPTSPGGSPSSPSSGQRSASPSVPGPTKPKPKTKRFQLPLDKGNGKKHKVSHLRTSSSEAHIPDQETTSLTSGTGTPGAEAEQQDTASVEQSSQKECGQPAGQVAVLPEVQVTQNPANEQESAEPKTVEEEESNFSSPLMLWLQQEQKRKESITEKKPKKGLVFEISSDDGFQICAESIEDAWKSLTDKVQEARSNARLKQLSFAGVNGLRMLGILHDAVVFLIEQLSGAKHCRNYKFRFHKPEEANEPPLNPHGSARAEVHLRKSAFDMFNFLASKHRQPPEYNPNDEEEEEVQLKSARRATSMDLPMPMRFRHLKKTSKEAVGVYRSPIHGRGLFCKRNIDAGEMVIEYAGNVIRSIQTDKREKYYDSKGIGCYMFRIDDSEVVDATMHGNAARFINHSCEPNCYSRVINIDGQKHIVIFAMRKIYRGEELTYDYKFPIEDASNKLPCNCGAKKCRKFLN

| Compound | IC50 [µM] |
| --- | --- |
| CC1(C)CN=C(N2CCN(c3ncnc4sc(CCCl)cc34)CC2)S1 | 0.193 |
| CCc1cc2c(N3CCN(c4nnc(C(F)(F)F)s4)CC3)ncnc2s1 | 1.3 |
| CCCc1cc2c(N3CCN(c4nnc(C(F)(F)F)s4)CC3)ncnc2s1 | 0.65 |
| CSc1cc2c(N3CCN(c4nnc(C(F)(F)F)s4)CC3)ncnc2s1 | 20 |
| CCCc1cc2c(N3CCN(c4nnc(C(F)(F)F)[nH]4)CC3)ncnc2s1 | 200 |
| FC(F)(F)c1nnc(N2CCN(c3ncnc4sc(C5CC5)cc34)CC2)s1 | 2 |
| FC(F)(F)Cc1cc2c(N3CCN(c4nnc(C(F)(F)F)o4)CC3)ncnc2s1 | 1.4 |

These compounds were tested against T1, Menin/Histone-lysine N-methyltransferase MLL (assay: Inhibition of full length human menin-MLL1 (4 to 43 residues) (unknown origin) protein-protein interaction after 1 hr by fluorescence polarization assay).

| Compound | IC50 [µM] |
| --- | --- |
| CC(c1cc2c(N3CCN(C4=NCC(C)(C)S4)CC3)ncnc2s1)C(F)(F)F (stereo not given) | 0.765 |

The compounds below were run against T1, Menin/Histone-lysine N-methyltransferase MLL (assay: Inhibition of menin (unknown origin)-FITC-tagged MLL1 (unknown origin) protein-protein interaction after 1 hr by fluorescence polarization assay).

| Compound | IC50 [µM] |
| --- | --- |
| CCc1cc2c(N3CCN(Cc4ccc(Cl)cc4)CC3)ncnc2s1 | 14 |
| CCc1cc2c(N3CCN(Cc4ccccc4)CC3)ncnc2s1 | 52 |
| CCc1cc2c(N3CCN(c4nncs4)CC3)ncnc2s1 | 193 |
| CCc1cc2c(N3CCN(c4ccccn4)CC3)ncnc2s1 | 58 |
| CCc1cc2c(N3CCN(c4ncccn4)CC3)ncnc2s1 | 87 |
| CCc1cc2c(N3CCN(c4nccs4)CC3)ncnc2s1 | 46 |
| CCCCc1cc2c(N3CCN(C4=NCC(C)(C)S4)CC3)ncnc2s1 | 0.75 |
